Experimental data taken from patent publication US20170368052A1, “CRYSTAL FORMS OF APOMORPHINE AND USES THEREOF” (NeuroDerm, Ltd., priority 2014, published 2017).

Assays:
Assay type in all cases: physicochemical
[1] = Process hold-point stability (purity profile)
Protocol: An optimized non-aqueous procedure is provided below and shown in Scheme 4. • 1. Add apomorphine hydrochloride (1.0 wt), ascorbic acid-6-palmitate (0.01 wt), IPA (30 vol) and stir at 18-23° C. • 2. Vacuum/nitrogen purge the vessel 3× at 18-23° C. and place under a flow of nitrogen. • 3. Heat the slurry to 60-65° C. • 4. Add 3-amino-1-propanol (1.1 eq, 0.25 vol) maintaining 60-70° C. (target 60-65° C.). • 5. As required, cool the reaction mixture to 60-65° C. […] Stir for 15-20 minutes and check for full dissolution. • 7. On full dissolution, clarify the reaction mixture through a ≦1 μm filter and line rinse with IPA (3 vol) at 60-65° C. (Note: the reaction solution is highly unstable to air while hot, therefore total exclusion of air is required.) • 8. Concentrate the reaction mixture under reduced pressure to approximately 10 vol maintaining 55-65° C. • 9. […] Cool the slurry to 68-71° C. and age for 1 h (crystallization is expected during the cool down period approximately 72° C.). • 11. Slow the stirring for the remainder of the preparation to the minimum effective rate and check for crystallization: if crystallization has not occurred, seed the reaction with 0.1 wt % of seeds and age for 1 h. • 12. Cool the slurry to 18-23° C. over 5-6 h at an approximately constant rate. • 13. Age the slurry at 18-23° C. for 2-16 h. • 14. […]

[2] = Stability of the reaction mixture at reflux in IPA with/without ascorbic acid-6-palmitate (HPLC); conditions: solution at reflux with ascorbic acid-6-palmitate
Protocol: In this case, the base was added under reflux and the procedure compared with and without ascorbic acid-6-palmitate as an antioxidant (Table 7).

[3] = Equilibrium desiccator analysis at 75-80% RH; conditions: 75 to 80% RH at 18-23° C., after 1 h

Compound: CC(C)O.CN1CCc2cccc3c2C1Cc1ccc(O)c(O)c1-3 (stereo not shown) [A0513-126, apomorphine free base IPA solvate]
- Change in purity profile of the material isolated ([1]; distillation over 6 h at 60-65° C.): no significant change

Compound: CN1CCc2cccc3c2C1Cc1ccc(O)c(O)c1-3 (stereo not shown) [A0513-98-01]
- Change in purity profile ([1]; reaction mixture held 2 h at reflux (83° C.)): no significant change
- % area: RRT 1.00 [2]: 99.83 % area
- % area: RRT 1.25 [2]: 0.04 % area
- % area: RRT 1.71 [2]: 0.06 % area
- % area: RRT 1.76 [2]: 0.04 % area

Compound: CN1CCc2cccc3c2[C@H]1Cc1ccc(O)c(O)c1-3 [A0505-110-D1, apomorphine free base]
- Weight increase [3]: 2.0 % w/w
